Results as given in patent US12133523B2, “Anti-freezing composition comprising self-assembly compound” (Korea University Research and Business Foundation, priority 2019, dated 2024).
“Also recorded” adds a separate entry of the source. Residues, ends and D or L forms follow the SMILES beside them. *: point of attachment. Fmoc = O=C(OCC1c2ccccc2-c2ccccc21)*

What was measured:
[1] = test system: mouse embryonic stem cells (mESCs); assay: Cryopreservation activity for mESC (freeze/thaw survival, differentiation); format: cell-based; details: sample solution 10% (v/v), FBS 40%, media 50%; -80 °C then liquid nitrogen
Description: 250 μL of trypsinized mouse ES cells, 200 μL of FBS and 50 μL of cryopreservation solution (0.005 μM, 0.01 μM, 0.05 μM, and 0.1 μM) were frozen in a rapid freezer for 2 days, and then stored in an LN2 tank. Thawing was performed in a 37° C. constant temperature water bath. The cell frozen stock mixture was inoculated in 4.5 mL medium of 15 mL tube, and then centrifuged at 1000 rpm for 5 minutes. Cell pellets were added with 1 mL medium and inoculated in a 6-well plate.
A cell storage solution was prepared with a sample solution 10% (v/v), FBS 40% (v/v), and media 50% (v/v) according to the present invention, and frozen at −80° C. using a rapid freezer, then the cells were stored for 2 days, and further stored in a liquid nitrogen tank for 2 days or more. Then, the cells were thawed and used in the experiment. In addition, the cells were cultured by treatment with a leukemia inhibitory factor (LIF) to confirm the differentiation ability of stem cells. All the controls were cultured and differentiated under the same conditions, except that deionized water was added instead of the sample according to the present invention.

[2] = test system: mouse embryonic stem cells (mESCs); assay: mESC cell viability by CCK-8 assay and crystal violet dye; format: cell-based; details: for toxicity to mESC: 5 to 20 uM, CCK-8 and crystal violet dye; for cell viability with respect to mESC: CCK-8
Description: In a 60 mm cell culture dish coated with 0.1% gelatin (Sigma), mouse ES cells were cultured in a medium DMEM (Hyclone), to which 2 mM L-glutamine (Mediatech Inc.), 1% penicillin/streptomycin (Mediatech Inc.), 15% heat-inactivated fetal bovine serum (Hyclone), 20 mM HEPES-pH 7.3 (Cellgro), 0.1 mM MEM non-essential amino acid (Cellgro), 0.1 mM 2-mercaptoethanol (Sigma) and 1000 U/mL LIF (Millipore) are added, in order to prevent differentiation.
Mouse ES cells were seeded by 8×10^4 cells per well in a 96-well plate containing the above various cryopreservation solutions. After 9 hours, CCK-8 reagent was added and fluorescence intensity was measured using an ELISA Reader (TECAN).
[…] Cells were washed with 500 μL of PBS and 500 μL of 4% PFA was added thereto for 15 minutes. The fixed cells were washed twice with 500 μL of PBS and 0.5% crystal violet solution was added thereto for 30 minutes. The stained cells were washed with tap water.

[3] = Ice recrystallization inhibition (IRI) splat assay, MLGS from DFOM images; details: for IRI effect: ice recrystallized 30 minutes at -6 °C
Description: In order to more clearly confirm the effect of inhibiting ice crystal growth, ice recrystallization inhibition (IRI) characteristics were analyzed. Analysis of ice recrystallization was performed by reference Mitchell, D. E., Clarkson, G., Fox, D. J., Vipond, R. A., Scott, P., & Gibson, M. I. (2017). Antifreeze Protein Mimetic Metallohelices with Potent Ice Recrystallization Inhibition Activity. Journal of the American Chemical Society, 139(29), 9835-9838 and Budke, C., Heggemann, C., Koch, M., Sewald, N., & Koop, T. (2009). Ice Recrystallization Kinetics in the Presence of Synthetic Antifreeze Glycoprotein Analogues Using the Framework of LSW Theory. The Journal of Physical Chemistry B, 113(9), 2865-2873. More specifically, a 10 μL sample was dropped from a height of 1.5 m onto a surface of a cover glass precooled to −60° C. so as to form a thin film of ice. […] During recrystallization of ice, dark-field optical microscopy (DFOM) images were taken, and ten of the largest ice crystal domains were chosen and a mean value thereof was obtained to evaluate the IRI activity. A mean largest grain size (MLGS) analysis was repeated three times.

[4] = Freezing control on food (beef frozen at -20 °C, thawed; SEM, optical microscope, TEM)
Description: In order to determine whether Fmoc-FFT can be used as a cryoprotectant for foods, Fmoc-FFT was added to beef (FIG. 22a), then frozen at −20° C. for one day, thawed at room temperature, and then SEM images were observed (FIGS. 22b and d).
After freezing and thawing, Fmoc-FFT was added to water in order to confirm the beef tissue, frozen at −20° C., then the process of recrystallization of ice was observed under an optical microscope.
Further, in order to confirm the tissue change in more detail, the thawed tissue was rapidly frozen in liquid nitrogen, then cut while maintaining −20° C., and the internal tissue was checked. […] It was observed that, when the Fmoc-FFT was not added, the size of tissue pore was 22±8.6 μm, while it was 5±2.3 μm when adding the same.

[5] = Critical micellar concentration from emission intensity versus concentration; format: physicochemical
[6] = Gold nanoparticle (MPA-AuNP) colorimetric freeze/thaw assay for TH and IRI activity
Description: Thermal hysteresis (TH) as anti-freezing activity was measured in accordance with the method described in Park, J.-I., Lee, J. H., Gwak, Y., Kim, H. J., Jin, E., & Kim, Y.-P. (2013). Frozen assembly of gold nanoparticles for rapid analysis of antifreeze protein activity. Biosensors and Bioelectronics, 41, 752-757, and ice recrystallization inhibition (IRI) activity was measured based on Mitchell, D. E., Congdon, T., Rodger, A., & Gibson, M. I. (2015). Gold Nanoparticle Aggregation as a Probe of Antifreeze (Glyco) Protein-Inspired Ice Recrystallization Inhibition and Identification of New IRI Active Macromolecules. Scientific Reports, 5(1). More specifically, when dispersing AFP in a solution in which gold nanoparticles are dispersed, and freezing the solution then thawing again, if the AFP has good conjugating force with an ice crystal surface, the dispersibility of gold nanoparticles is good to maintain an original color of the solution, whereas if it has weak conjugating force, AFP is precipitated, and when ice crystals are rapidly formed, the solution is subjected to color change.
Gold nanoparticles (Cit-AuNP) stabilized with citric acid were synthesized to prepare mercaptopropionic acid (MPA)-AuNP. 20 mL of a storage solution containing 1 mM HAuCl4·3H2O was added to 50 mL of deionized water (DI water). After the solution was stirred and heated to a boiling point, 30 mM sodium citric acid in 2 mL of deionized water was further added to the solution and heated for 20 minutes. The color of the solution changed from bright yellow to burgundy. […] An average size of MPA-capped AuNP was measured to be about 16.7 nm.
On a microwell plate, 50 μL of a solution containing 0.5 mM sample was added to 350 μL of 300 μM MPA-AuNP solution, respectively. […] To quantitatively confirm the color change before and after freezing, absorption spectra of each mixture were measured with a UH5300 spectrometer before and after freezing. The spectra were measured from 300 nm to 900 nm at a scan speed of 400 nm/min, and aggregation properties (E525/E650) of each mixture were compared. […]

Row | Molecule | survival and proliferation of mESC after freezing and thawing [1] | toxicity to mESC [2] | IRI effect [3] | cell viability with respect to mESC [2] | also measured
1 | CC(NC(=O)C(Cc1ccccc1)NC(=O)C(Cc1ccccc1)NC(=O)OCC1c2ccccc2-c2ccccc21)C(N)=O (stereo not drawn) [Fmoc-FFA] (Fmoc-Phe-Phe-Ala-NH2; configuration not given here) | survival and proliferation of mESC was smoothly performed | no toxicity | had the IRI effect |  | 
2 | CC(C)C(NC(=O)C(Cc1ccccc1)NC(=O)C(Cc1ccccc1)NC(=O)OCC1c2ccccc2-c2ccccc21)C(N)=O (stereo not drawn) [Fmoc-FFV] (Fmoc-Phe-Phe-Val-NH2; configuration not given here) |  |  | had the IRI effect | significant cell viability | 
3 | CC(O)C(NC(=O)C(Cc1ccccc1)NC(=O)C(Cc1ccccc1)NC(=O)OCC1c2ccccc2-c2ccccc21)C(N)=O (stereo not drawn) [Fmoc-FFT] (Fmoc-Phe-Phe-Thr-NH2; configuration not given here) | survival and proliferation of mESC was smoothly performed | no toxicity | had the IRI effect |  | relative IRI activity ([3]; comparison between materials, MLGS): highest IRI activity; size of tissue pore ([4]; thawed beef tissue refrozen in liquid nitrogen, cut at -20 °C): 5±2.3 μm; size of recrystallized ice ([4]; versus no Fmoc-FFT added, -20 °C): significantly smaller; also recorded: remarkably smaller
4 | CC(O)C(NC(=O)C(CCC(=O)O)NC(=O)C(Cc1ccccc1)NC(=O)C(CCC(=O)O)NC(=O)C(Cc1ccccc1)NC(=O)OCC1c2ccccc2-c2ccccc21)C(N)=O (stereo not drawn) [Fmoc-FEFET] (Fmoc-FEFET-NH2; configuration not given here) | survival and proliferation of mESC was smoothly performed | no toxicity |  |  | CMC ([5]; aqueous solution, compared to Fmoc-FFT): 22.8 µM; solubility ([5]; compared to Fmoc-FFT): improved
5 | CC(O)C(NC(=O)C(Cc1ccccc1)NC(=O)C(Cc1ccccc1)NC(=O)Cc1ccc2ccccc2c1)C(N)=O (stereo not drawn) [Naph-FFT] |  |  | had IRI effects | significant cell viability | 
6 | C[S+](C)[O-] [DMSO, dimethyl sulfoxide, reference compound] |  | high toxicity |  |  | 
7 | CC(O)C(NC(=O)C(Cc1ccccc1)NC(=O)C(CC1=CN=C2C=CC=CC12)NC(=O)OCC1c2ccccc2-c2ccccc21)C(N)=O (stereo not drawn) [Fmoc-WFT] |  |  | had IRI effects | significant cell viability | aggregation of gold particles after freezing/thawing (absorption peak shift 525 nm to 650 nm) ([6]; 50 μL of 0.5 mM sample in 350 μL of 300 μM MPA-AuNP, -65 °C 23 min): an aggregation phenomenon was exhibited
8 | Bovine serum albumin [BSA, reference compound] |  |  |  |  | aggregation of MPA-AuNP (color change) after freezing/thawing ([6]; MPA-AuNP + 2 μM BSA or PEG): aggregation did not occur
9 | NC(=O)C(Cc1ccccc1)NC(=O)C(Cc1ccccc1)NC(=O)OCC1c2ccccc2-c2ccccc21 (stereo not drawn) [Fmoc-FF] (Fmoc-Phe-Phe-NH2; configuration not given here) | survival and proliferation of mESC was smoothly performed | no toxicity |  |  | critical micellar concentration (CMC) ([5]; aqueous solution): 17 µM
10 | NC(=O)C(CO)NC(=O)C(Cc1ccccc1)NC(=O)C(Cc1ccccc1)NC(=O)OCC1c2ccccc2-c2ccccc21 (stereo not drawn) [Fmoc-FFS] (Fmoc-Phe-Phe-Ser-NH2; configuration not given here) |  |  | had the IRI effect | significant cell viability | 
